From article PMC4576993 (Leukemia, 2011)

Experiment: Renal excretion of vosaroxin and metabolites in urine, 24 h after first dose
Assay type: in vivo, human
Details: 18 and 27 mg/m^2 weekly, eight patients

CO[C@H]1CN(c2ccc3c(=O)c(C(=O)O)cn(-c4nccs4)c3n2)C[C@@H]1N [N-desmethyl-vosaroxin]
Average renal excretion of the total dose infused (24 h after first dose): 0.99% | Detection in urine (first dose): the only metabolite detected in urine | Ratio of N-desmethyl-vosaroxin to vosaroxin excretion in urine (first dose, coefficient of variation 40%): 0.43
